“Also recorded” adds a separate entry of the source.
Experiments:
Format in all cases: cell-based, human
HuH-7 cells = test: Traction stress analysis; details: HuH-7 on PDMS, 12 hr, n = 18-21 cells
Procedure: mRuby-Lifeact-7 transfected HuH-7 cells were applied for the traction force microscopy experiments. The in situ fluorescent images of the cell was applied to define the area of measurement. The cells were seeded on a PDMS substrate functionalized with 0.2 µm FluoSpheres™ Carboxylate-Modified Microspheres (F8807, Invitrogen) at a density of approximately 6000 cells/cm^2. The substrate was fabricated by following the published protocol on (STAR) Protocol[45], except that there were no ECM proteins coated on the substrate here. […] After being pretreated with peptides for 12 hr, the samples were imaged by a 100×/1.35 Silicon UPlanSApo objective, and the bead displacement obtained from confocal imaging was converted into force-displacement fields following established protocol[47],[48]. Briefly, Images of beads with and without cell attachment were first aligned to correct experimental drift using ImageJ plugin “align slices in stack”. The displacement field was subsequently calculated by another ImageJ plugin “PIV (Particle Image Velocimetry)”. The cross-correlation PIV with a size of 64 × 32 pixels was used on all images for the PIV analysis to produce the position and vector field of the bead displacement. With the displacement field obtained from the PIV analysis, the traction force field was then reconstructed by the ImageJ plugin “FTTC”. […]

[1] = test system: FAK Y397 phosphorylation in HuH-7 cells; test: Western blotting FAK / pY397 FAK
[2] = test system: cells expressing integrin α3β1; test: Cell adhesion assay, cells expressing integrin α3β1; details: coated with 100 µM, 1 h at 37 °C, n = 30
Procedure: (§1) The 96-well microplates wells were coated with peptide assemblies (the concentration of FFFIKLLI was kept at 100 μM constantly) for 12 hr at 37 °C before blocked with the Blocking Buffer (2% BSA, 1 mM CaCI2 and 1 mM MnCI2 in PBS) for 1 hr at 37 °C. Cells were collected from culture dishes and suspended in the Blocking Buffer containing anti-laminin-5 (P3H9-2, MAB1947, Chemicon, 5 μg/ml), anti-fibronectin (IST-9, ab6328, Abcam, 20 μg/ml) or IgG isotype control (20 μg/ml, Abcam) before immediately seeded to the coated well (20,000 cells/well) and allowed to incubate at 37 °C for 1 h. The wells were washed for three times with the Blocking Buffer and the phase-contrast images were captured by IncucyteS3 (Essen Bioscience) with a 10× objective.

[3] = test system: integrin knockdown HuH-7 cells; test: Wound healing assay, integrin knockdown HuH-7; details: 48 hr wound healing, 100 µM, n = 6
Procedure: (§2) Healthy cells were seeded in 96-well Image Lock plates (Essen Bioscience, UK). Each well contained 2 ×10^4 to 5 × 10^4 cells in 100 μL of complete cell culture medium. Cell monolayer with approximately 90% confluence formed after 12 hr and cells were next starved in serum-free culture medium for 12 hrs. Homogenous scratch wounds with a width of about 700 μm were made by an Essen BioScienceWound Maker. The detached cells were washed with Dulbecco’s Buffered Saline (DPBS, Gibco) 3 times. Cells were incubated with 100 μL of culture medium containing 0.5 % FBS and desired concentration of each peptide. Wound closure was monitored by an IncucyteS3 (Essen Bioscience) with a 10x objective. Images for each well were acquired every 2 hr to 8 hr for 2 days or until the wounds were closed completely. The wound healing rate was quantified by Incucyte Scratch Wound Analysis Module (Essen Bioscience). The experiments were repeated at least 3 times, and the results were presented as mean ± standard deviation of at least 3 independent experiments.
(§3) Integrin β1 shRNA plasmid (#sc-29375-SH), Integrin α3 shRNA plasmid (#sc-35684-SH), Integrin α6 shRNA plasmid (#sc-43129-SH), and control shRNA plasmid-A (#sc-108060) were purchased from Santa Cruz Biotechnology for knockdown of the target integrins. The knockdown efficiency was evaluated by western blotting.

[4] = test system: MCF-7 and Ect1/E6E7 cells; test: Wound healing assay, cells lacking integrin α3β1; details: 10-200 µM, 48 hr
Procedure: as §2

[5] = test system: RhoA in HuH-7 cells (DORA-RhoA); test: RhoA activity by FRET
From the text: (§4) The mGFP-paxillin expression vector was a gift from A. Kusumi (Okinawa Institute of Science and Technology, Japan). pGFP-FAK and pEGFP-vinculin were gifts from Kenneth Yamada (RRID: Addgene_50513 and Addgene¬_50515)[39], EGFP-talin, mVenus-Integrin-Beta1 and mRuby-Lifeact-7 was a gift from Michael Davidson (RRID: Addgene_54560). pEGFPC1/Gg Vinculin 1-258 (akaVD1) was a gift from S. Craig (RRID: Addgene_46270)[40]. The Rac1 FRET Sensor, pCAGGS-RaichuEV-Rac1was generously provided by K. Aoki (National Institute for Basic Biology, Japan)[41] and the RhoA FRET sensor, DORA-RhoA was generously provided by Yi I. Wu (University of Connecticut Health Center, USA)[42]. The expression vectors for Rac1/Tiam1 activation system (Lyn11-linker-FRB, YFP-FKBP, YFP-FKBP-linker-Tiam1, and pTriEx-PA-Rac1) was generously provided by T. Inoue (Johns Hopkins University, USA)[43].

[6] = test system: Rac1 in HuH-7 cells (RaichuEV-Rac1); test: Rac1 activity by FRET
From the text: as §4

[7] = test system: integrin knockdown HuH-7 cells; test: Cell adhesion assay, integrin knockdown HuH-7; details: coated with 100 µM FFFIKLLI, n = 30
Procedure: as §3, §1

[8] = relative to Ctrl = 1, 12 hr, representative blot

## FFFIKLLI [assembling ligand: FFF coupled to the N-terminus of IKLLI; self-assembles into nanofilaments]
HuH-7 cells
  Average Traction Stress: 0.101 kPa
  Maximal Traction Stress: 0.828 kPa
[1]; HuH-7, 12 hr, n = 9
  FAK Y397 phosphorylation: reduction
[1]; [8]
  FAK band: 0.87
  pY397FAK band: 0.34
[2]
  adherence to FFFIKLLI-coated dishes: remained adhered to the substrate
[3]
  suppression efficacy after knockdown of α3 or β1 integrin subunit: attenuated the suppression efficacy
  suppression efficacy after knockdown of α6 subunit (attenuated?): did not
[4]
  effect on cell migration: negligible influence
[5]; 12 hr, n = 50 cells, mean
  RhoA activity, FRET/CFP: 1.263
[5]; HuH-7
  RhoA activity: great inhibition; also recorded: suppressed RhoA activity; also recorded: global inhibition
[6]; 12 hr, n = 50 cells, mean
  Rac1 activity, FRET/CFP: 1.262
[6]; HuH-7
  Rac1 activity: great inhibition; also recorded: global inhibition
[7]
  adherence after knockdown of α3 or β1 subunit: significantly reduced their adherence

Source: paper PMC9411606, “Control cell migration by engineering integrin ligand assembly” (Nature Communications, 2022)
